The target of test [1] is T1, human opioid receptor-like (ORL-1) receptor (Homo sapiens, UniProt P41146).
T1 construct: host or cells: HEK-293
The test is described as follows: ORL-1 receptor radioligand dose-displacement binding assay ([3H]-nociceptin). The method, then:
All reagents are obtained from Sigma (St. Louis, Mo.) unless noted otherwise. Membranes from recombinant HEK-293 cells expressing the human opioid receptor-like (ORL-1) receptor (Perkin Elmer, Boston, Mass.) are prepared by lysing cells in ice-cold hypotonic buffer (2.5 mM MgCl2, 50 mM HEPES, pH 7.4) (10 mL/10 cm dish), followed by homogenization with a tissue grinder/teflon pestle. Membranes are collected by centrifugation at 30,000×g for 15 min at 4° C., and pellets are resuspended in hypotonic buffer to a final concentration of 1-3 mg/mL. Protein concentrations are determined using the BioRad (Hercules, Calif.) protein assay reagent with bovine serum albumen as standard. Aliquots of the ORL-1 receptor membranes are stored at −80° C.
(§1) Radioligand dose-displacement binding assays for ORL-1 and μ receptors use 0.1 nM [^3H]-nociceptin or 0.2 nM [^3H]-diprenorphine (NEN, Boston, Mass.), respectively, with […] membrane protein/well in a final volume of […] binding buffer (10 mM MgCl2, 1 mM EDTA, 5% DMSO, 50 mM HEPES, pH 7.4). Reactions are carried out in the absence or presence of increasing concentrations of unlabeled nociceptin (American Peptide Company, Sunnyvale, Calif.) or naloxone, for ORL-1 and […], respectively. All reactions are conducted in 96-deep well polypropylene plates for 1-2 h at room temperature. Binding reactions are terminated by rapid filtration onto 96-well Unifilter GF/C filter plates (Packard, Meriden, Conn.) presoaked in 0.5% polyethylenimine using a 96-well tissue harvester (Brandel, Gaithersburg, Md.) followed by three filtration washes with 500 μL of ice-cold binding buffer. Filter plates are subsequently dried at 50° C. for 2-3 h. BetaScint scintillation cocktail (Wallac, Turku, Finland) is added (50 μl/well), and plates are counted using a Packard Top-Count for 1 min/well. The data are analyzed using the one-site competition curve fitting functions in GraphPad PRISM v. 3.0 (San Diego, Calif.).

Test [2] addresses T2, kappa opioid receptor (Homo sapiens, UniProt P41145).
T2 construct: expressed in transfected cells; host or cells: HEK-293
The test is described as follows: κ opioid receptor binding assay ([3H]-U69,593). The method, then: Membranes from recombinant HEK-293 cells expressing the human kappa opioid receptor (kappa) (cloned in house) were prepared by lysing cells in ice cold hypotonic buffer (2.5 mM MgCl2, 50 mM HEPES, pH 7.4) (10 ml/10 cm dish) followed by homogenization with a tissue grinder/teflon pestle. Membranes were collected by centrifugation at 30,000×g for 15 min at 4° C. and pellets resuspended in hypotonic buffer to a final concentration of 1-3 mg/ml. Protein concentrations were determined using the BioRad protein assay reagent with bovine serum albumen as standard. Aliquots of kappa receptor membranes were stored at −80° C.
Radioligand dose displacement assays used 0.4-0.8 nM [^3H]-U69,593 (NEN; 40 Ci/mmole) with 10-20 μg membrane protein (recombinant kappa opioid receptor expressed in HEK 293 cells; in-house prep) in a final volume of 200 μl binding buffer (5% DMSO, 50 mM Trizma base, pH 7.4). Non-specific binding was determined in the presence of 10 μM unlabeled naloxone or U69,593. All reactions were performed in 96-well polypropylene plates for 1 h at room temperature. Binding reactions were determined by rapid filtration onto 96-well Unifilter GF/C filter plates (Packard) presoaked in 0.5% polyethylenimine (Sigma). Harvesting was performed using a 96-well tissue harvester (Packard) followed by five filtration washes with 200 μl ice-cold binding buffer. Filter plates were subsequently dried at 50° C. for 1-2 hours. Fifty μl/well scintillation cocktail (MicroScint; Packard) was added and plates were counted in a Packard Top-Count for 1 min/well.

For test [3], the target named is T3, delta opioid receptor (Homo sapiens, UniProt P41143).
T3 construct: purchased Perkin Elmer; host or cells: CHO-K1
T3 sequence (P41143 whole entry): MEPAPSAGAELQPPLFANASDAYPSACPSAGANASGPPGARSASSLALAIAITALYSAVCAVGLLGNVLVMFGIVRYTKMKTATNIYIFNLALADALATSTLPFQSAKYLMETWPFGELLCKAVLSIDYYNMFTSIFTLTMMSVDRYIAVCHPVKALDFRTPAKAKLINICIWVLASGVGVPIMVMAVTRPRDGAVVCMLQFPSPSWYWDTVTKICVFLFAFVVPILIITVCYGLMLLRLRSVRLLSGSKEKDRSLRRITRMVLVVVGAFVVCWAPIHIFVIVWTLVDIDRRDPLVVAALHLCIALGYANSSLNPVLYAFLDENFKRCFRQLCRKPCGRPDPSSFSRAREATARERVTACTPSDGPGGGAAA
The test is described as follows: δ opioid receptor binding assay ([3H]-Naltrindole). The method, then:
Radioligand dose-displacement assays used 0.2 nM [^3H]-Naltrindole (NEN; 33.0 Ci/mmole) with 10-20 μg membrane protein (recombinant delta opioid receptor expressend in CHO-K1 cells; Perkin Elmer) in a final volume of 500 μl binding buffer (5 mM MgCl2, 5% DMSO, 50 mM Trizma base, pH 7.4). Non-specific binding was determined in the presence of 25 μM unlabeled naloxone. All reactions were performed in 96-deep well polypropylene plates for 1 h at room temperature. Binding reactions were determined by rapid filtration onto 96-well Unifilter GF/C filter plates (Packard) presoaked in 0.5% polyethylenimine (Sigma). Harvesting was performed using a 96-well tissue harvester (Packard) followed by five filtration washes with 500 μl ice-cold binding buffer. Filter plates were subsequently dried at 50° C. for 1-2 hours. Fifty μl/well scintillation cocktail (MicroScint, Packard) was added and plates were counted in a Packard Top-Count for 1 min/well.

For test [4], the target named is T4, μ opioid receptor (Homo sapiens, UniProt P35372). The test is described as follows: μ-receptor [35S]GTPγS functional assay. Conditions: for Emax: maximal effect relative to DAMGO, read-out: μ GTP Emax. It is filed as biochemical. The method, then:
[^35S]GTPγS functional assays are conducted using freshly thawed ORL-1 or μ-receptor membranes, as appropriate. Assay reactions are prepared by sequentially adding the following reagents to binding buffer (100 mM NaCl, 10 mM MgCl2, 20 mM HEPES, pH 7.4) on ice (final concentrations indicated): membrane protein (0.066 mg/mL for ORL-1 receptor and 0.026 mg/mL for μ-receptor), saponin ([…]), GDP ([…]) and [^35S]GTPγS (0.20 nM; NEN). Aliquots of the prepared membrane solution (190 μL/well) are transferred to 96-shallow well polypropylene plates containing 10 μL of 20× concentrated stock solutions of the agonist nociceptin prepared in dimethyl sulfoxide (“DMSO”). Plates are incubated for 30 min at room temperature with shaking. Reactions are terminated by rapid filtration onto 96-well Unifilter GF/B filter plates (Packard, Meriden, Conn.) using a 96-well tissue harvester (Brandel, Gaithersburg, Md.) followed by three filtration washes with 200 μL of ice-cold binding buffer (10 mM NaH2PO4, 10 mM Na2HPO4, pH 7.4). Filter plates are subsequently dried at 50° C. for 2-3 h. BetaScint scintillation cocktail (Wallac, Turku, Finland) is added (50 μL/well) and plates are counted using a Packard Top-Count for 1 min/well. Data are analyzed using the sigmoidal dose-response curve fitting functions in GraphPad PRISM, v. 3.0.
μ GTP EC50 is the concentration of a compound providing 50% of the maximal response for the compound at a μ receptor.
μ GTP Emax % is the maximal effect elicited by a compound relative to the effect elicited by [D-Ala2, N-methyl-Phe4, Gly-ol5]-enkephalin (“DAMGO”), a standard μ agonist. Generally, the μ GTP Emax (%) value measures the efficacy of a compound to treat or prevent pain or diarrhea.
(In general: Binding of GTPγS marks nucleotide exchange on a G protein.)

In test [5] the target is T4, μ opioid receptor. Briefly: μ-opioid receptor radioligand dose-displacement binding assay ([3H]-diprenorphine). The method, then: as §1
For test [6], the target named is T2, kappa opioid receptor. The test is described as follows: κ opioid receptor functional [35S]GTPγS binding assay. It is filed as biochemical. Particulars: for Emax: maximal effect relative to U69,593, read-out: κ GTP Emax. The method, then: κ GTP EC50 is the concentration of a compound providing 50% of the maximal response for the compound at an K receptor.
κ GTP Emax % is the maximal effect elicited by a compound relative to the effect elicited by U69,593.
(§2) The κ and δ opioid receptor functional [^35S]GTPγS binding assays were conducted as follows. Kappa or delta opioid receptor membrane solution was prepared by sequentially adding final concentrations of 0.026 μg/μl membrane protein (kappa: in-house, delta: Perkin Elmer), 10 μg/ml saponin, 3 μM GDP and 0.20 nM [^35S]GTPγS to binding buffer (100 mM NaCl, 10 mM MgCl2, 20 mM HEPES, pH 7.4) on ice. The prepared membrane solution (190 μl/well) was transferred to 96-shallow well polypropylene plates containing 10 μl of 20× concentrated stock solutions of agonist prepared in DMSO. Plates were incubated for 30 min at room temperature with shaking. Reactions were terminated by rapid filtration onto 96-well tissue harvester (Packard) and followed by three filtration washes with 200 μl ice-cold binding buffer (10 mM NaH2PO4), 10 mM Na2HPO4, pH 7.4). Filter plates were subsequently dried at 50° C. for 2-3 hours. Fifty μl/well scintillation cocktail (MicroScint20, Packard) was added and plates were counted in a Packard Top-Count for 1 min/well.

In test [7] the target is T3, delta opioid receptor. The test is described as follows: δ opioid receptor functional [35S]GTPγS binding assay. It is filed as biochemical. Conditions: for Emax: maximal effect relative to met-enkephalin, read-out: δ GTP Emax. The method, then: δ GTP EC50 is the concentration of a compound providing 50% of the maximal response for the compound at an δ receptor.
δ GTP Emax % is the maximal effect elicited by a compound relative to the effect elicited by met-enkephalin.
as §2

The target of the next test is T5, ORL-1 receptor (Homo sapiens, UniProt P41146).
T5 construct: host or cells: HEK-293
T5 sequence (P41146 whole entry): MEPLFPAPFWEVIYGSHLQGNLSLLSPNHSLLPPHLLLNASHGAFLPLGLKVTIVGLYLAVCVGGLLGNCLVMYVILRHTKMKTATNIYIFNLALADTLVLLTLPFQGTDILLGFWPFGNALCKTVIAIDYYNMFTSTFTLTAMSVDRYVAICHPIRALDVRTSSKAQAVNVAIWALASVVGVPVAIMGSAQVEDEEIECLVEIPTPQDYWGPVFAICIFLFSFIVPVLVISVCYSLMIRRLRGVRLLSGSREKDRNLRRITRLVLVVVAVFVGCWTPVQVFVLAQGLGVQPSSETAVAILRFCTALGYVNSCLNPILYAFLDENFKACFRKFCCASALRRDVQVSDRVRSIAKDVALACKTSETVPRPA
The test is described as follows: ORL-1 receptor [35S]GTPγS functional assay. It counts as biochemical. The method, then:
Filter plates are subsequently dried at 50° C. for 2-3 h. […] 3.0.

The mark [8] stands for this setting: Ki for binding to μ-opioid receptors.

4 molecules from patent publication US20080319020A1, “4-Oxadiazolyl-Piperidine Compounds and Use Thereof” (Purdue Pharma L.P., priority 2005, published 2008) can be followed below.

pEC50, pKi: −log10 of the molar value. Read-outs that look alike come from different tables or passages of the source.

As a reminder, the pKi is −log10 of the Ki, conventionally taken in molar units. The term pEC50 denotes the EC50 on a negative log10 scale, so that one unit is a factor of ten. What is called Emax is the size of the effect at its maximum, as opposed to the concentration needed.

T4 sequence (P35372 whole entry): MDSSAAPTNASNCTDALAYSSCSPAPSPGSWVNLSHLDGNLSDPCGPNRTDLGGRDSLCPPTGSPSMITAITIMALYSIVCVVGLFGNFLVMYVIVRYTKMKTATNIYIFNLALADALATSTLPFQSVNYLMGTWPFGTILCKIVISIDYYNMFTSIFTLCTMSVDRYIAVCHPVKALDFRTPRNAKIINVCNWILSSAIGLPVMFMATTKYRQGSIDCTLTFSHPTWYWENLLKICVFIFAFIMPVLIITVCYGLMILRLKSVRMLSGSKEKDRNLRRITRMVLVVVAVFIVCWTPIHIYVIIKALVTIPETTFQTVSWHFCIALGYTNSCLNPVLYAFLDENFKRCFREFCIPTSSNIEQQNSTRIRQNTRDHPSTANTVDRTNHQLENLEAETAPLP
T2 sequence (P41145 whole entry): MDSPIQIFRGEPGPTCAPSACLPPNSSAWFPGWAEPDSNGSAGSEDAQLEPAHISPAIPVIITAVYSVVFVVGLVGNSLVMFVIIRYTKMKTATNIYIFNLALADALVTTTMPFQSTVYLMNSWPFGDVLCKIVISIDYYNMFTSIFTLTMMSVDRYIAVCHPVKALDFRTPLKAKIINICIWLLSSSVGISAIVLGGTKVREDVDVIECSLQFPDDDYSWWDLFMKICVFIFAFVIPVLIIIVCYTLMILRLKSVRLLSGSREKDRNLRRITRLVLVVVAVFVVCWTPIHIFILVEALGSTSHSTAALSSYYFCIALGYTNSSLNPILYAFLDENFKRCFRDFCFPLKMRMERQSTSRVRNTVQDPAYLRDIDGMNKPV
T1 sequence (P41146 whole entry): as the sequence (P41146 whole entry) above

With `CN(C)C(=O)C(CCN1CCC(c2ccccc2)(c2noc(CC(N)=O)n2)CC1)(c1ccccc1)c1ccccc1` [AFE], the pKi in test [1] is 5.74; on kappa opioid receptor [2] it was 6.82; at delta opioid receptor [3] it was 5.44; at μ opioid receptor [5] (setting [8]) it was 8.23; on μ opioid receptor [5] (μ Ki) it was 8.23. Moreover, the pEC50 is 7.79 on μ opioid receptor [4] and 5.90 on kappa opioid receptor [6]. For the same molecule, the Emax came to 116% at μ opioid receptor [4] and 44.7% on kappa opioid receptor [6].
For `CCOC(=O)Cc1nc(C2(c3ccccc3)CCN(CCC(C(=O)N(C)C)(c3ccccc3)c3ccccc3)CC2)no1` [AFL], the pEC50 is 7.08 at delta opioid receptor [7], below 4.70 at ORL-1 receptor, 8.98 at μ opioid receptor [4] and 5.77 at kappa opioid receptor [6]. Further, the Emax on delta opioid receptor [7] turned out to be 114%; on ORL-1 receptor (maximal effect relative to nociceptin, read-out: ORL1 GTP Emax), 28%; on μ opioid receptor [4] it was 117%; on kappa opioid receptor [6], 52.7%. In addition, the pKi was 6.16 in test [1]; 7.48 on kappa opioid receptor [2]; 6.65 at delta opioid receptor [3]; 8.96 at μ opioid receptor [5] (setting [8]); 8.95 at μ opioid receptor [5] (μ Ki).
Turning to `NC(=O)Cc1nc(C2(c3ccccc3)CCN(CCC(C(=O)N3CCCC3)(c3ccccc3)c3ccccc3)CC2)no1` [AFX], the pKi in test [1] was 5.89; on kappa opioid receptor [2], 6.44; at delta opioid receptor [3] it was 5.63; on μ opioid receptor [5] (setting [8]) it was 8.32; on μ opioid receptor [5] (μ Ki), 8.32. In addition, the pEC50 at μ opioid receptor [4] is 8.09; on kappa opioid receptor [6], 5.42. In addition, the Emax at μ opioid receptor [4] is 90%; on kappa opioid receptor [6], 41.7%.
Consider `CCOC(=O)Cc1nc(C2(c3ccccc3)CCN(CCC(C(=O)N3CCCC3)(c3ccccc3)c3ccccc3)CC2)no1` [AGE], for which the Emax on delta opioid receptor [7] turned out to be 104%; on μ opioid receptor [4] it was 103%; on kappa opioid receptor [6], 56%. The values for the negative logarithm of the EC50 (pEC50) on delta opioid receptor [7] (read-out: δ GTP EC50), on μ opioid receptor [4] (read-out: μ GTP EC50) and at kappa opioid receptor [6] (read-out: κ GTP EC50) were 7.67, 8.69 and 6.15, respectively. The pKi in test [1] was 5.41; on kappa opioid receptor [2] (read-out: κ Ki), 7.04; on delta opioid receptor [3] (read-out: δ Ki), 6.47; at μ opioid receptor [5] (read-out: Ki for binding to μ-opioid receptors), 8.89; on μ opioid receptor [5] (read-out: μ Ki), 8.89.
